ChEMBL document CHEMBL1201862, “PubChem BioAssay data set” (2004)
Activity calls are given as the source filed them.

Tests used:
[1] = molecular target: T1, E3 ubiquitin-protein ligase XIAP (Homo sapiens, UniProt P98170); assay: Counter Screen using XIAP-Bir3 for Chemical Antagonists of Bir1/2 domains of IAP-family anti-apoptotic proteins. [Related pubchem assays (depositor defined):AID1018, AID1449, AID1514, AID1638, AID1749, AID1750, AID488957, AID488963]
[2] = molecular target: T1, E3 ubiquitin-protein ligase XIAP; assay: XIAP antagonists, biochemical, IAP family, fluorescence polarization (AID 1018); format: functional
HEK293 [3] = assay: NOD1 signaling inhibitors, primary screen, cell-based, luminescence, uHTS (AID 1578); format: functional; conditions: Homo sapiens
HEK293 [4] = assay: cells; format: functional, cell-based; conditions: Homo sapiens
HEK293 [5] = assay: cells; format: functional, cell-based; conditions: Homo sapiens; remark: listed apart in the source
Ion channel NompC = Ion channel NompC (Danio rerio, UniProt Q7T1G6); assay: Dose response cell-based high-throughput screening assay for agonists of the transient receptor potential channel N1 (TRPN1). [Related pubchem assays (depositor defined):AID1424, AID1448]; format: functional
HEK293 [6] = assay: NOD2 signaling inhibitors in MDP-stimulated cells, cell-based, uHTS, luminescence (AID 2001); format: functional; conditions: Homo sapiens
[7] = inhibitors of intracellular T. cruzi replication, confirmation, NIH3T3 host cells, beta-gal luminescence (AID 2044); format: functional, cell-based;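 note: intracellular parasites grown in NIH/3T3 mouse fibroblasts as host cells; luminescent beta-galactosidase reporter signal from transgenic T. cruzi replicating inside host cells; inhibitors lower the luminescence signal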
Mucolipin-3 = Mucolipin-3 (Homo sapiens, UniProt Q8TDD5); assay: Fluorescence counterscreen assay for […] agonists: dose response cell-based high-throughput screening assay to identify agonists of the transient receptor potential channel ML3 (TRPML3). [Related pubchem assays: 1424, 1448 ]; format: functional
[8] = molecular target: T2, Calpain-2 catalytic subunit (Sus scrofa, UniProt P43367); assay: pig calpain II inhibitor potency, dose response, biochemical, fluorogenic peptide substrate (AID 1420); format: functional
T2 sequence (P43367 whole entry): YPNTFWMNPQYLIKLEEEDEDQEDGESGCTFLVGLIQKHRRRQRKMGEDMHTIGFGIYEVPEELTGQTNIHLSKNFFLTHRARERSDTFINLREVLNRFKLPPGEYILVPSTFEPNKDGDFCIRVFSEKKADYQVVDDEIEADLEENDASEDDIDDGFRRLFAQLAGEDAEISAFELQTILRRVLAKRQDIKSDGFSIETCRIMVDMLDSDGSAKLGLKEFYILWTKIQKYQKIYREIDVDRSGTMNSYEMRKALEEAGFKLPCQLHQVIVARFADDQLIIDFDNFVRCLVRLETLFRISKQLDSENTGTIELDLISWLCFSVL

[9] = cytotoxicity toward NIH3T3 fibroblasts, dose response, counter-screen, cell-based, ATP luminescence, mouse fibroblasts (AID 2010); format: functional;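 note: cells exposed to compound for about 90 hours before reading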
[10] = molecular target: T3, Runt-related transcription factor 1/Core-binding factor subunit beta (Homo sapiens, UniProt Q01196+Q13951); assay: inhibitors of RUNX1 Runt–CBFb-SMMHC binding, primary screen, biochemical, FRET, Cerulean-Runt, Venus-CBFb-SMMHC, uHTS (AID 1434); format: protein assay;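 note: partner is the CBFb-SMMHC leukemia fusion protein rather than wild-type CBFb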
[11] = molecular target: T3, Runt-related transcription factor 1/Core-binding factor subunit beta; assay: inhibitors of RUNX1 Runt–CBFb-SMMHC binding, biochemical, TR-FRET (AID 1438); format: protein assay
Fatty acid synthase [12] = molecular target: T4, Fatty acid synthase (Homo sapiens, UniProt P49327); assay: FAS thioesterase domain inhibitors, dose response, biochemical, endpoint fluorescence intensity, uHTS hits (AID 624327); format: functional;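 note: fluorescence from hydrolysis of an O-methyl fluorescein acyl ester substrate by the enzyme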
Fatty acid synthase [13] = molecular target: T4, Fatty acid synthase; assay: FAS thioesterase domain inhibitors, dose response, biochemical, kinetic fluorescence intensity (AID 624326); format: functional;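 note: rate of fluorescence rise from hydrolysis of a fluorogenic O-methyl fluorescein ester substrate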
[14] = A cytotoxicity screen of small molecule inhibitors of the PhoP region in Salmonella typhi identified in the primary screen. [Related pubchem assays: 1850, 1864, 1985 ]; format: functional
[15] = molecular target: T5, Voltage-gated N-type calcium channel alpha-1B subunit/Amyloid beta A4 precursor protein-binding family A member 1 (Homo sapiens, UniProt Q00975+Q02410); format: protein assay
[16] = molecular target: T5, Voltage-gated N-type calcium channel alpha-1B subunit/Amyloid beta A4 precursor protein-binding family A member 1; format: protein assay; remark: listed apart in the source
[17] = molecular target: Glucose-6-phosphate 1-dehydrogenase (Homo sapiens, UniProt P11413); assay: human G6PD enzyme inhibitors, dose response, selectivity assay for P. falciparum G6PD inhibitor project, biochemical, fluorescence (AID 504792); format: functional
Coagulation factor XII = molecular target: T6, Coagulation factor XII (Homo sapiens, UniProt P00748); assay: FXIIa inhibitor potency, concentration-response, biochemical (AID 716); format: functional
T6 sequence (P00748 whole entry): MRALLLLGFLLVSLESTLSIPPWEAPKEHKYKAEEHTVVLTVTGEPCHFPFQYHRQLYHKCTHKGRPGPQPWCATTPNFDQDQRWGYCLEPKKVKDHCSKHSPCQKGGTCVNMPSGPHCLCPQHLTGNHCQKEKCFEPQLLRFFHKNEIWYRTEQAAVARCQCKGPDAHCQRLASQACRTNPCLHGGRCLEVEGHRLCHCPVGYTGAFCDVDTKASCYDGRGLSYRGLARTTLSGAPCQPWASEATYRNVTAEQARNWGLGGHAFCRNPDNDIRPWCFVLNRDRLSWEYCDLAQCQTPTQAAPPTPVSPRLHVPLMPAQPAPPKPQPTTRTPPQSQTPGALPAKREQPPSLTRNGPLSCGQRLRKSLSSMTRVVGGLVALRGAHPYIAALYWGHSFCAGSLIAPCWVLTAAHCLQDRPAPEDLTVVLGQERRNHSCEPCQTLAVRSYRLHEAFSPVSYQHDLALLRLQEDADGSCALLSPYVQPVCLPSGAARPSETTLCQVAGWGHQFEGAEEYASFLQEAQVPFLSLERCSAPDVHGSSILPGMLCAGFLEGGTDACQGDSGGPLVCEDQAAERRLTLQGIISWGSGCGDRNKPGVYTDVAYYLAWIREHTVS

Cytochrome P450 2C19 = Cytochrome P450 2C19 (Homo sapiens, UniProt P33261); assay: Cytochrome panel assay with activity outcomes. Panel member name: p450-cyp2c19 Compounds with AC50 equal or less than 10 uM are considered active; format: functional; conditions: read-out: AC50
Chain of Cytochrome P450 2C19 (P33261 whole entry): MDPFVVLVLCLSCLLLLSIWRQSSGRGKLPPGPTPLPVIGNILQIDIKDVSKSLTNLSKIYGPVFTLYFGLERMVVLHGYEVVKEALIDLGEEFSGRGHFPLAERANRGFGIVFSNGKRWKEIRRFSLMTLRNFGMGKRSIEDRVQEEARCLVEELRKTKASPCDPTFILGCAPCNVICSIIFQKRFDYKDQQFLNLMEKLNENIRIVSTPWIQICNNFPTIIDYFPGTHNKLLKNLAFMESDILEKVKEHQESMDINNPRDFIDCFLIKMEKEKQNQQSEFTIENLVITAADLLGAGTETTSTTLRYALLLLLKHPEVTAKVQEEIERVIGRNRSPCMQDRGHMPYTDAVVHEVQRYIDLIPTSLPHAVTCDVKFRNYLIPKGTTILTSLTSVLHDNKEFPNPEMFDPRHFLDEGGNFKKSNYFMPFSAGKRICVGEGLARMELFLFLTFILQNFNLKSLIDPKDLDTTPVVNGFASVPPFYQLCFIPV

T5 sequence (Q00975 whole entry): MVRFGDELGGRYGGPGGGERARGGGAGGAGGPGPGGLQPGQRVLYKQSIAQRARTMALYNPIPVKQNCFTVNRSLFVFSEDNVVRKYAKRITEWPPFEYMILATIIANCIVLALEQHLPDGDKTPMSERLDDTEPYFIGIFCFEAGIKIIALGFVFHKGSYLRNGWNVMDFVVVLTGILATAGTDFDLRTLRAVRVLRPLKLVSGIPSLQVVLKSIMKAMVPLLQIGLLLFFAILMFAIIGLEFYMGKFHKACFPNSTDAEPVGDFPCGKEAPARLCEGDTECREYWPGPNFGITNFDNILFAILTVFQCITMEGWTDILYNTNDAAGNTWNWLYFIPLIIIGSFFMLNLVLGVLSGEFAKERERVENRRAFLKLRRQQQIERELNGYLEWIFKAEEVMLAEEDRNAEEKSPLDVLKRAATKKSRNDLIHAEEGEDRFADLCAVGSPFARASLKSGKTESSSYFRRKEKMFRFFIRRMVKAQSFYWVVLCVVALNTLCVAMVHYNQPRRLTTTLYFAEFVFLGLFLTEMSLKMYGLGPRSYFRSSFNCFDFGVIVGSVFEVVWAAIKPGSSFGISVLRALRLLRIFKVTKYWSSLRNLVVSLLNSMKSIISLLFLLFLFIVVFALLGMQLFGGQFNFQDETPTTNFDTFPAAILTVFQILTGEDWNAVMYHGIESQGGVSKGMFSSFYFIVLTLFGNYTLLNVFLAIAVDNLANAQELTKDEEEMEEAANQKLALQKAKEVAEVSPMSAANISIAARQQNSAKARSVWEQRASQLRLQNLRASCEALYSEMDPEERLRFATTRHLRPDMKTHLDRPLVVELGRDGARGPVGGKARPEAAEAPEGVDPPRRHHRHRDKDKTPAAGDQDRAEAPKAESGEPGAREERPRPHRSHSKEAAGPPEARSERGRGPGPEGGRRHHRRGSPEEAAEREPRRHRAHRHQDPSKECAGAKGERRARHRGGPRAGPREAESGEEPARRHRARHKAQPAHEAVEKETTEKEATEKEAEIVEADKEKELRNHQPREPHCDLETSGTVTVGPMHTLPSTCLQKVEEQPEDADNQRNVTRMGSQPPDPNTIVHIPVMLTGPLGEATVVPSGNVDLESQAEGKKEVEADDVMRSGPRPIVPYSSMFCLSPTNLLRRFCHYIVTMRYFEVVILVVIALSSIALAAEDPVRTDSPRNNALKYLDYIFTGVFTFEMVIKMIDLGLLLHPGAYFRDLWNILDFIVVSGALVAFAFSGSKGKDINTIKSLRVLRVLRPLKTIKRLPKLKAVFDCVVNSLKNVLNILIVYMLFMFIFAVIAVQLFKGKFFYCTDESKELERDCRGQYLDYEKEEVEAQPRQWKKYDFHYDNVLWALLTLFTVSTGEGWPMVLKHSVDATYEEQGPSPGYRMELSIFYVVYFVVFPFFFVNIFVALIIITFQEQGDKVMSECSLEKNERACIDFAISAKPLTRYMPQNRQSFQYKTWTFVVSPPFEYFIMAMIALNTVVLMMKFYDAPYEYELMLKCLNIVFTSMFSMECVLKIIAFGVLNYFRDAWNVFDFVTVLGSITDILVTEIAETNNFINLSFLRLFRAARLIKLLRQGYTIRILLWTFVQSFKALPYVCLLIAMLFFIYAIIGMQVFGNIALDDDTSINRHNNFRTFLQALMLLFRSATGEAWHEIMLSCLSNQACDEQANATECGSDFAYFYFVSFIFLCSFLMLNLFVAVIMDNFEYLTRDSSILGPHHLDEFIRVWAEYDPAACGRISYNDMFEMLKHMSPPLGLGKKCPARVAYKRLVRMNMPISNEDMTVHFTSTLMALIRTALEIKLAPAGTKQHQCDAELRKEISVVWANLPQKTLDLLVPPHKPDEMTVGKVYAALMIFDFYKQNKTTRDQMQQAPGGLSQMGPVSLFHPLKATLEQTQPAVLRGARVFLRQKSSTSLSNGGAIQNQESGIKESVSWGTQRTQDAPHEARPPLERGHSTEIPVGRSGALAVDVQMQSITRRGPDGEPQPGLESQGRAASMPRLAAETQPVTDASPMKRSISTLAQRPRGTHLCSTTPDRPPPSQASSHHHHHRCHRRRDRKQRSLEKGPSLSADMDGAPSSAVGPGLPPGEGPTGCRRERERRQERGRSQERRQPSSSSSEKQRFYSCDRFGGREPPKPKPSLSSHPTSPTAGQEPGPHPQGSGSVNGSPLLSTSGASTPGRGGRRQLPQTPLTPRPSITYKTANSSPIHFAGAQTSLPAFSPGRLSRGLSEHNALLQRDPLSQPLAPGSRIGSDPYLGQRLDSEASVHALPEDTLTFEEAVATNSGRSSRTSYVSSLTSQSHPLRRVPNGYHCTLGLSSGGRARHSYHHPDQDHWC
T5 sequence (Q02410 whole entry): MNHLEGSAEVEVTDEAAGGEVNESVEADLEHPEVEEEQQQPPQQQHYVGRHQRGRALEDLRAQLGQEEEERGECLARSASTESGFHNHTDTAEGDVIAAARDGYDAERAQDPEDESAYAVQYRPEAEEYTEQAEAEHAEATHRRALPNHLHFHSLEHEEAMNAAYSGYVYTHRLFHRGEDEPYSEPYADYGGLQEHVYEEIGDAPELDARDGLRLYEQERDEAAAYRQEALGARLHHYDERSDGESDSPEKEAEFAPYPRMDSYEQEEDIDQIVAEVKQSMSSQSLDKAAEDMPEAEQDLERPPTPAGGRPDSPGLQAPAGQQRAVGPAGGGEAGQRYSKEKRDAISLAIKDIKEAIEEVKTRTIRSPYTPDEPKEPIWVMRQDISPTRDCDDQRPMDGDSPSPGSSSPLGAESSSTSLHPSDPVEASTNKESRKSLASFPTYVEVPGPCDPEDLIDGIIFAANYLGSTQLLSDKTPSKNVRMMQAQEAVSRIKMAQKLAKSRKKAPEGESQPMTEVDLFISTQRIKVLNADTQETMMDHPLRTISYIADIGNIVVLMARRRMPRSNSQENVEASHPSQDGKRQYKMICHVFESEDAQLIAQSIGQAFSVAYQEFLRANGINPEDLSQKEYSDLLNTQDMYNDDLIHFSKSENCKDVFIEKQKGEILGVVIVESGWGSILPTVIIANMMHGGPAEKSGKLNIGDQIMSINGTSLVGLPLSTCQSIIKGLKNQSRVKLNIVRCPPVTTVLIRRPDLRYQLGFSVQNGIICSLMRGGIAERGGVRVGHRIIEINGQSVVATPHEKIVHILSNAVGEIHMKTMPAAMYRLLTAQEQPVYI
T3 sequence (Q01196 whole entry, the tested form may be a part): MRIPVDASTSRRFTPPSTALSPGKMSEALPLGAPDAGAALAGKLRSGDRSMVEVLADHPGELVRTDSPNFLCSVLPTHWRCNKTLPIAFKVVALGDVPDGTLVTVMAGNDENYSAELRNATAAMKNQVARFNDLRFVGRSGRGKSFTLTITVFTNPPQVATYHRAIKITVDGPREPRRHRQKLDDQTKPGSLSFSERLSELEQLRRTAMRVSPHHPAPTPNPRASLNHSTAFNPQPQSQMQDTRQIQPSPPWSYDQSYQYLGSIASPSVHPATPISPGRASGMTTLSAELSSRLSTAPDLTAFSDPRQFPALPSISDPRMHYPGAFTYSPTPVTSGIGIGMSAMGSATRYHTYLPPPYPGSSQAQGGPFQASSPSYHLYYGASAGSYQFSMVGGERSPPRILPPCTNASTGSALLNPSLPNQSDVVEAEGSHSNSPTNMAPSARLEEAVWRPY
T3 sequence (Q13951 whole entry, the tested form may be a part): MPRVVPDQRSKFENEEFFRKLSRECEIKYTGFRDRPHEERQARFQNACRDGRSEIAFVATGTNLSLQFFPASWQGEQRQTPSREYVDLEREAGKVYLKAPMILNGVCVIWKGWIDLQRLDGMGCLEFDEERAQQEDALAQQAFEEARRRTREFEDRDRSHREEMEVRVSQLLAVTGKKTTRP
T1 sequence (P98170 whole entry): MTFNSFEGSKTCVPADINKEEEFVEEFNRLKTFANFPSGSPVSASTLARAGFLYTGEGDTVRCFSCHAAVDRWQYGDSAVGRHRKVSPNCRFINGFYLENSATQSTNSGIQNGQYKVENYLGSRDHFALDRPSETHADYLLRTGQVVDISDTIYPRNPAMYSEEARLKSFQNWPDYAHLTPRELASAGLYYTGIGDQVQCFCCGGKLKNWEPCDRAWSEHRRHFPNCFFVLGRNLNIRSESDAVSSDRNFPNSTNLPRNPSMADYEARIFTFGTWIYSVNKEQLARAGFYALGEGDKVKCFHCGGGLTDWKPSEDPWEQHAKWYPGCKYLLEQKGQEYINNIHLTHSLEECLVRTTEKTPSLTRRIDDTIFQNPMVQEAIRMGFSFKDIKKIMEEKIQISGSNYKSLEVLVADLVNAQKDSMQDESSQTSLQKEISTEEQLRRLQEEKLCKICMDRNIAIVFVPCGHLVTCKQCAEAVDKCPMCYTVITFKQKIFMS

COc1cc(C(=O)O)cc(NC(=O)c2cccs2)c1OC
IC50 [1]: > 100 µM (inactive) | IC50 [2]: > 100 µM (not active)

O=C(Cc1ccc(Cl)cc1)Nc1ncc([N+](=O)[O-])s1
EC50 (HEK293 [3]): 4.23 µM (active) | IC50 (HEK293 [4]): 9.12 µM (active) | IC50 (HEK293 [5]): > 20 µM (inactive) | EC50 (Ion channel NompC): > 29.9 µM (inactive) | IC50 (HEK293 [6]): 10.9 µM (inactive) | EC50 [7]: 0.589 µM (active) | EC50 (Mucolipin-3): > 29.9 µM (not active) | IC50 [8]: < 0.4 µM (not active) | EC50 [9]: > 60 µM (inconclusive)

Cc1cccn2c(=O)c(/C=C(\C#N)C(N)=O)c(N3CCN(Cc4ccc5c(c4)OCO5)CC3)nc12
IC50 [10]: > 100 µM (inactive) | IC50 [11]: > 100 µM (inactive) | IC50 (Fatty acid synthase [12]): 7.79 µM (active) | IC50 (Fatty acid synthase [13]): 9.39 µM (active)

COc1cc(OC)c(C2CC(=O)N3CN(c4ccccc4)CSC3=C2C#N)cc1OC (stereo unspecified)
EC50 [14]: > 50 µM (active) | IC50 [15]: 6.01 µM (active) | IC50 [16]: > 50 µM (inactive) | IC50 [17]: > 80 µM (inactive)

CCOC(=O)N1CCN(C(=O)c2ccc(Cl)c(S(=O)(=O)N3CCOCC3)c2)CC1
IC50 (Coagulation factor XII): > 50 µM (inactive) | AC50 (Cytochrome P450 2C19): 39.8 µM (inconclusive)
